A short description of data set [1]: Determination of suramin in plasma and brain tissue of mice after IP or IN administration. It is filed as in vivo, male Fmr1-knockout B6.129P2-Fmr1tm1Cgr/J TG mice. The conditions noted are these: male, Fmr1-knockout B6.129P2-Fmr1tm1Cgr/J, mouse, Group 1: IP injection 20 mg/kg weekly for four weeks, read-out: Average Brain Tissue to Plasma Partitioning Ratio.
Procedure: For the study, male Fmr1-knockout B6.129P2-Fmr1tm1Cgr/J TG mice were purchased from Jackson Laboratories, Bar Harbor, Me. These mice were of approximately 8 weeks of age.
Mice were accommodated to the research facility for approximately a week. Body weights of all mice were recorded for health monitoring purposes.
Blood samples were collected from all mice at the end of 12 weeks of age. Brain tissue was harvested from all mice upon sacrifice 13-14 weeks of age. Standard sample preparation and analytical techniques were used to obtain the data.
The data is presented as the average plasma concentration (in both ng/ml and μM) for each animal group the and average brain tissue concentration (in both ng/g and mmol/g). Also presented is the average brain tissue to plasma partition ratio for each group.
The conditions of data set [2]: in vivo, cited from earlier work.

On to `Cc1ccc(C(=O)Nc2ccc(S(=O)(=O)O)c3cc(S(=O)(=O)O)cc(S(=O)(=O)O)c23)cc1NC(=O)c1cccc(NC(=O)Nc2cccc(C(=O)Nc3cc(C(=O)Nc4ccc(S(=O)(=O)O)c5cc(S(=O)(=O)O)cc(S(=O)(=O)O)c45)ccc3C)c2)c1` [suramin], for which the Kp in data set [1] worked out at 0.03. The oral bioavailability result in data set [2] (po) is reported as “not orally bioavailable”. Moreover, the half-life (in general, the time in which the quantity being followed falls by half) in data set [2] was 41 to 78 days.

The values are drawn from patent publication US20220226268A1, “COMPOSITIONS AND METHODS FOR TREATING CENTRAL NERVOUS SYSTEM DISORDERS” (PaxMedica, Inc., priority 2019, published 2022).
